From patent US20130230580A1, “Administration of SNS Neuroprotective Agents to Promote Hematopoietic Regeneration” (priority 2010, published 2013)

B1: GDNF-HA: glial cell-derived neurotrophic factor-hemagluttinin fusion (protein, UniProt P39905 78-211, looked up)
Glial cell line-derived …: SPDKQMAVLPRRERNRQAAAANPENSRGKGRRGQRGKNRGCVLTAIHLNVTDLGLGYETKEELIFRYCSGSCDAAETTYDKILKNLSRNRRLVSDKVGQACCRPIAFDDDLSFLDDNLVYHILRKHSAKRCGCI
modifications: hemagglutinin tag
notes: glial cell-derived neurotrophic factor-hemagluttinin fusion

Assays:
[1] = format: in vivo; conditions: cisplatin-treated vs saline mice, seven weekly injections; listed as Cisplatin
Description: To protect from kidney damage, mice were simultaneously subcutaneously (s.c.) injected with 1 mL of saline solution. Four weeks after the last injection of cisplatin, mice were euthanized for analysis, transplanted (see below) or mobilized with granulocyte colony-stimulating factor (G-CSF, see below). […] To induce neuroprotection from 60HDA, mice were injected with 4-MC (10 μg/kg; i.p.) or GDNF-Fc (5 μg per mice; s.c.) for 5 days, starting the treatment the same day as the first injection of 60HDA. To evaluate the effect of different treatments on the sensory response, the hot-plate test was performed as described in Raaijmakers et al., Curr. Opin. Hematol. 15:301 (2008), incorporated herein by reference. An Isotemp Dryblock (Fisher Scientific) was heated to, and maintained at, 50° C. Mice were individually placed on top of the heated surface and the time to the first episode of nociception (jumping or paw licking) was measured. The cut-off time was 60 seconds. Between measurements, the heated surface was thoroughly cleaned with detergent and ethanol and the temperature was allowed to stabilize at 50° C.

bone marrow = assay: Bone marrow hematopoietic recovery after transplantation (BMNC, CFU-C, Lin-Sca1+c-kit+flt3- cells); format: in vivo, mice
Description: Mice were irradiated (1,200 cGy, two split doses, 3 hours apart) in a Cesium Mark 1 irradiator (JL Shepperd & associates). Three hours later, the indicated number of BMNCs was injected retroorbitally in the irradiated recipients under isoflurane (Phoenix Pharmaceuticals) anesthesia. Mice were allowed to recover and analyzed at the indicated time points. […]
(§1) Blood was harvested by retro-orbital sampling of mice anesthetized with isoflurane and collected in polypropylene tubes containing ethylenediaminetetraacetic acid (EDTA). Blood parameters were determined with an AcT differential counter (Beckman-Coulter). CFU-C assays were performed as described in He et al., Ann. Rev. Cell. Dev. Biol. 25:377 (2009), incorporated herein by reference. For flow cytometry, red blood cells were lysed thrice for 5 minutes at 4° C. in 0.15 M NH4Cl, cells were washed once in ice-cold PBS and counted in a hemocytometer. To determine Lin^−Sca1^+c-kit^+ or Lin^−Sca1^+c-kit^+ft13^− numbers, 10^6 cells were stained with the Mouse Lineage Panel (BD Biosciences) together with FITC-conjugated anti-Sca-1 antibody (BD Biosciences), PE-Cy7-conjugated anti-c-kit antibody (eBioscience) and PE-conjugated anti-flt3 antibody (eBioscience). Cells were further stained with streptavidin-Cy5 (Jackson Immunotech) and analyzed with a BD LSR11 system (BD Biosciences). Bone marrow was harvested by flushing the bone with 1 mL of ice-cold PBS, red blood cells were lysed once for 5 minutes at 4° C. in 0.15 M NH4Cl, cells were washed once in ice-cold PBS and counted with a hemocytometer. CFU-C and Lin^−Sca1^+c-kit^+ft13^− numbers were determined as above. In some experiments, CD150^+CD48^− cell numbers were determined by staining 5×10^6 cells with PE-anti-CD48 antibody (BD Biosciences) and PE-Cy7-anti-CD150 antibody (Biolegend).

[2] = set-up: species or system mice; conditions: mouse, in vivo
Description: (§2) To protect from kidney damage, mice were simultaneously subcutaneously (s.c.) injected with 1 mL of saline solution. Four weeks after the last injection of cisplatin, mice were euthanized for analysis, transplanted (see below) or mobilized with granulocyte colony-stimulating factor (G-CSF, see below).
To induce neuroprotection from 60HDA, mice were injected with 4-MC (10 μg/kg; i.p.) or GDNF-Fc (5 μg per mice; s.c.) for 5 days, starting the treatment the same day as the first injection of 60HDA.
Mice received G-CSF ([…]) s.c. every 12 hours for 5 days. Due to circadian oscillations on HSC mobilization, the last dose of G-CSF was administered 1 hour before blood collection at Zeigeber time 5.
as §1, with “To determine Lin^−Sca1^+c-kit^+ or Lin^−Sca1^+c-kit^+ft13^− numbers, 10^6 cells were stained with the Mouse Lineage Panel (BD Biosciences) together with FITC-conjugated anti-Sca-1 antibody (BD Biosciences), PE-Cy7-conjugated anti-c-kit antibody (eBioscience) and PE-conjugated anti-flt3 antibody (eBioscience).” left out

[3] = Complete blood counts of moribund cisplatin-treated mice after BMNC transplantation; format: in vivo; conditions: after BMT
Description: as §2
Mice were irradiated (1,200 cGy, two split doses, 3 hours apart) in a Cesium Mark 1 irradiator (JL Shepperd & associates). Three hours later, the indicated number of BMNCs was injected retroorbitally in the irradiated recipients under isoflurane (Phoenix Pharmaceuticals) anesthesia. Mice were allowed to recover and analyzed at the indicated time points.
Blood was harvested by retro-orbital sampling of mice anesthetized with isoflurane and collected in polypropylene tubes containing ethylenediaminetetraacetic acid (EDTA). Blood parameters were determined with an AcT differential counter (Beckman-Coulter). CFU-C assays were performed as described in He et al., Ann. Rev. Cell. Dev. Biol. 25:377 (2009), incorporated herein by reference. For flow cytometry, red blood cells were lysed thrice for 5 minutes at 4° C. in 0.15 M NH4Cl, cells were washed once in ice-cold PBS and counted in a hemocytometer. […] Cells were further stained with streptavidin-Cy5 (Jackson Immunotech) and analyzed with a BD LSR11 system (BD Biosciences). […] CFU-C and Lin^−Sca1^+c-kit^+ft13^− numbers were determined as above. […]

TH+ fibers = assay: Immunofluorescence quantification of TH+ sympathetic fibers in bone marrow / calvaria; conditions: compared with vehicle control
Description: Bones were collected and fixed for 1 hour in 4% paraformaldehyde (PFA) in PBS (Electron Microscopy Sciences) at 4° C. They were then post-fixed overnight in 1% PFA in PBS at 4° C. and cryoprotected for 24 hours in 30% sucrose. Bones were then included in OCT (Tissue Tek), sectioned (14 μm sections) in a Cryostat, and mounted on CFSA 4× Slides (Leica). TH^+ immunofluorescence staining was performed as previously described in Mendez-Ferrer, et al., Nature 452:442 (2008), incorporated herein by reference. For each mouse analyzed, the number of nerve fibers in 6 fields was quantified and plotted as per mm^2. For whole-mount immunofluorescence, calvaria were harvested by cutting along the temporal lines of the skull and immediately fixed in methanol. Bone tissues were blocked/permeabilized in PBS containing 20% FCS and 0.5% Triton and stained with APC-conjugated anti-PECAM CD31 antibody and TH (Millipore). Signal amplification for TH staining was achieved by using a signal amplification kit (Perkin Elmer). Whole-mount tissues were imaged face-down on an upright Olympus BX61WI microscope. The area between the frontal and parietal bones was identified by moving along the coronal suture and images were obtained from the same area for all mice, along the coronal vein on either side of the central vein. The numbers of individual nerve fibers running alongside blood vessels were quantified and plotted as per 100 μm vessel segment. All images were processed using Slidebook software (Intelligent Imaging Innovations, Inc.).

PC12ES cells = assay: Neural differentiation of PC12ES cells; format: cell-based; conditions: incubation for 1 week
Description: The murine cDNA for glial cell-line derived neurotrophic factor (Gdnf) was obtained from Open Biosystems. This cDNA was amplified and restriction sites were added for cloning with the following primers Forward: ACGCTAGCAATGGGATTCGGGCCACTT (SEQ ID NO:1); Reverse: CGAGATCTGCGATACATCCACACCGTTTAG (SEQ ID NO:2). The PCR product was purified and cloned into the PCL5.1neg plasmid to generate PCL5.1neg-GDNF. This plasmid was purified and transfected into 293T cells. Two days after transfection, the supernatant was collected and GDNF-Fc purified in a Protein G-sepharose column (Pierce). To assess functional activity of GDNF-Fc recombinant protein, PC12ES cells were cultured in DMEM supplemented with 5% FBS, 10% horse serum, sodium-pyruvate (Gibco), L-Glutamine (Gibco) and penicillin/streptomycin (Gibco) for 3 days and then the media was replaced with DMEM supplemented with 1% horse serum, sodium-pyruvate (Gibco), L-Glutamine (Gibco), penicillin/streptomycin (Gibco) and varying amounts of GDNF-Fc to induce differentiation. Seven days later the percentage of PC12 ES cells with two or more dendrites was scored under an inverted microscope. For each concentration of GDNF-Fc, 10 fields were analyzed.

Molecule	sensory neuropathy (latency time in nociception assay) [1]	bone marrow cellularity of surviving mice after transplantation (bone marrow; cisplatin-treated, four weeks after BMT)	BM recovery 3 months after transplantation (bone marrow; mouse, in vivo)	HSC content by competitive repopulation assays (bone marrow; mouse, in vivo)	number of mobilized progenitors in blood after G-CSF [2]	progenitor and Lin-Sca1+c-kit+flt3- HSC numbers in BM [2]	reduction in number of mobilized progenitors in blood [2]	anemia in moribund mice [3]	reduction of density of TH+ fibers in bone marrow (TH+ fibers)	neural differentiation of PC12ES cells (percent differentiated) (PC12ES cells)
N.N.[Cl][Pt][Cl] [cisplatin]	induces peripheral neuropathy	severely aplastic	not yet completely recovered	reduced HSC content	markedly reduced	no significant change	approximately 50%	severe anemia	65%	
B1										increase in the percent differentiation
